Measured values published in patent US11976066B1 (priority 2023, dated 2024).
In brackets after ≈: the same amount, converted by molar mass. Read-outs that look alike come from different tables or passages of the source.

Tested on: Mycobacterium tuberculosis H37Rv
Test: Resazurin Microplate Assay (REMA), anti-tubercular activity, susceptible strain
Format: cell-based
Conditions: 192 h
[1] = H37Rv strain, 8 days incubation at 37° C, Middlebrook 7H9 broth, read-out: MIC Susceptible (H37Rv)

Structure (SMILES): CCOC(=O)c1cc(C(=O)c2ccc(F)cc2)n2ccc(N)cc12 [Compound 3a, Ethyl 7-amino-3-(4-fluorobenzoyl)indolizine-1-carboxylate]
- MIC (read-out: MIC Susceptible (H37Rv), H37Rv strain, 8 days incubation at 37° C, Middlebrook 7H9 broth): ~16 µg/mL (≈ 49 µM)

Structure (SMILES): CCOC(=O)c1cc(C(=O)c2ccccc2[N+](=O)[O-])n2ccc(N)cc12 [Compound 3b, Ethyl 7-amino-3-(2-nitrobenzoyl)indolizine-1-carboxylate]
- MIC [1]: ~8 µg/mL (≈ 22.6 µM)

Structure (SMILES): CCOC(=O)c1cc(C(=O)c2ccc(Br)cc2)n2ccc(N)cc12 [Compound 3e, Ethyl 7-amino-3-(4-bromobenzoyl)indolizine-1-carboxylate]
- MIC [1]: ~32 µg/mL (≈ 82.6 µM)
